This passage reports IC50 and EC50 results from publication PMC5941281, “Protecting group free radical C–H trifluoromethylation of peptides” (Chemical Science, 2018).

For experiment [1], the target named is human insulin receptor(B). The experiment can be described thus: Insulin Receptor Binding Assay (scintillation proximity assay). To be noted: SPA, 384-well, membranes from CHO cells overexpressing human insulin receptor(B); [125I]-insulin 0.015 nM; room temperature, 1 to 12 hours. As for the experimental part: Both the binding affinity and functional activity of 18 supported the conclusion that the A19-CF3-tyrosine–insulin maintained its structural integrity as compared with unmodified, native insulin. To further support this observation, SOFAST ^13C methyl HMQC NMR spectroscopic analysis was conducted on both 18 and native unmodified insulin.[18] […] This observation validated the notion that CF3-labeling of aromatic sidechains provides a sensitive ^19F-NMR spectroscopic probe of the local environment in complex peptides while being minimally perturbing to the overall structure of the biomacromolecule.
Insulin Receptor Binding Assays were run in a scintillation proximity assay (SPA) 384- we ll
format using cell membranes prepared from CHO cells overexpressing human insulin
receptor(B) grown in F12 media containing 10% FBS and antibiotics (G418,
Penicillin/[…]). Cell membranes were prepared in 50 mM Tris buffer, pH 7.8, containing
5 m M Mg Cl 2. The assay buffer contained 50 mM Tris buffer, pH 7.5, 150 mM NaCl, 1 mM
CaCl2, 5 mM MgCl 2, 0.1% BSA and protease inhibitors (Complete- Mi n i -Roche). Cell
membranes were added to W GA PVT PEI SPA beads (5 mg/mL f inal concentration) f ollowed by
addition of test molecules at appropriate concentrations. After 5-15 min incubation at room
temperature, [125I]- insulin was added at 0.015 nM f inal concentration f or a f inal total volume of
50 µL. […]

For experiment [2], the target named is human insulin receptor(B). The experiment can be described thus: Insulin Receptor Phosphorylation Assay (MSD pIR assay). The experiment is classed as cell-based. To be noted: CHO cells stably expressing human insulin receptor(B), serum starved, 40,000 cells/well, 8 min at 37 °C, read-out: EC50 (functional assay).

In experiment [1], “native insulin: recombinant human insulin, 21 amino acid A chain and 30 amino acid B chain linked by three disulfide bonds” registered an IC50 of 0.8 nM. Further, in experiment [2], the EC50 amounted to 0.4 nM.

Usually IC50 stands for the point on the concentration scale where inhibition reaches its midpoint. One may read the EC50 as the concentration needed to bring the measured effect to its halfway point.
